One assay relates to Wistar rats. The assay can be described thus: Acetic acid-induced abdominal spasm test in the rat. It counts as in vivo. Conditions: oral 100 mg/kg. As for the experimental part:
(§1) The objective of this example was to determine the analgesic activity of HY-2901 (Also referred to herein as Compound 49a) following oral administration. Analgesic activity was assessed abdominal spasm test in the rat and mouse. Analgesic activity is also assessed using the tail clip test in the mouse, tail flick test in the rat, Randall-Selitto test in the rat and comparisons are made with a vehicle control group. Reference compounds ASA (acetylsalicylic acid) and morphine are also included for comparison.
(§2) The tail clip and tail flick test provide useful information about the central analgesic activity of the test article. The Randall-Selitto test provides information on the compound's ability to modify a hyperalgesic state and the abdominal spasm test provides information on the peripheral analgesic activity of the test article. The test article is administered by oral gavage, this being the intended clinical route of administration. The dose levels employed are expected to encompass the efficacy dose and provide an adequate safety margin.
(§3) All formulations were prepared on each day of dosing. The test article (HY-2901) was formulated in 0.25% (w/v) MC at the highest concentration required. Lower doses were obtained by serial dilution of the highest concentration using 0.25% (w/v) MC. The reference compound, acetylsalicylic acid, was formulated in 0.25% (w/v) MC at the required concentrations. Brewer's yeast was formulated in water for injection at the required concentration. Acetic acid was diluted with water for injection to provide the required concentration for administration.
(§4) An adequate number of male Crl:CD-I(ICR)BR mice and Wistar rats were obtained from Charles River (UK) Ltd., Margate, Kent. The mice were approximately 4 weeks of age and weigh between 18 and 22 g on arrival. The rats were approximately 5 weeks of age and weigh between 150 and 170 g on arrival. The age and weight of the animals at the start of the study was documented in the raw data and final report,
Each animal received a single administration of vehicle, test article or reference compound by oral gavage, using a constant dose volume […]. Individual dose volumes were based on individual body weights obtained on the day of dosing.
Forty-five minutes following oral administration each animal received a 1 mL intraperitoneal injection of 1% acetic acid. Animals were immediately placed into individual observation chambers and the number of abdominal spasms elicited over the subsequent 25-minute period was recorded.

The next assay relates to Crl:CD-I(ICR)BR mice. The assay can be described thus: Acetic acid-induced abdominal spasm test in the mouse. Type of assay: in vivo. As for the experimental part:
as §1, §2, §3, §4
Each animal received a single administration of vehicle, test article or reference compound by oral gavage, using a constant dose volume 10 mL/kg. Individual dose volumes were based on individual body weights obtained on the day of dosing.
Forty-five minutes following oral administration each animal received a 0.25 mL intraperitoneal injection of 0.5% acetic acid. Animals were immediately placed into individual observation chambers and the number of abdominal spasms elicited over the subsequent 25-minute period was recorded.

Several values for one entry are separate records, joined by “and”; a condition that tells them apart may be missing. Equal values may be shown once.

On to `CC(=O)Oc1ccccc1C(=O)O` [ASA, acetylsalicylic acid, reference compound], for which the “Group mean (=sd) number pf abdominal spasms recorded in a 25-minute period” value in the assay on Wistar rats is 1 ± 2.3. In addition, the “Number of abdominal spasms recorded in a 25-minute period, individual animal data” value in the assay with Wistar rats (100 mg/kg) is 0 (3×) and 1 (2×) and 6. The “Group mean (±sd) number of abdominal spasms recorded in a 25 minute period” value with Crl:CD-I(ICR)BR mice (oral 100 mg/kg) was determined as 29 ± 29.9. Also, in the assay on Crl:CD-I(ICR)BR mice (oral, 100 mg/kg, individual animal data (animals 25-30)), the “Number of abdominal spasms recorded in a 25-minute period” value was 17 and 8 and 45 and 82 and 1 and 23.

For the origin of these results see patent US7326721B2 (Hypnion, Inc., priority 2003, dated 2008).
